pEC50: −log10 of the molar value. Active and inactive are the calls of the source. No cut-off for these calls is given here.
tested on: neuronal; assay: (§1) Cell protective activity in human MC65 cells assessed as protection against amyloid beta precursor protein C99-induced neuronal cell death after 3 days by MTT assay; assay type: functional, cell-based; conditions: not given

SMILES | Activity
CC(=O)Nc1nc2c(ncn2C[C@H](C)[C@H]2CCC3=Cc4c(cc(C)oc4=O)O[C@H]3C2)c(=O)[nH]1 | inactive
Cc1cc2c(c(=O)o1)C=C1CC[C@H]([C@@H](C)Cn3ccc(N)nc3=O)C[C@@H]1O2 | inactive
C=C(C)[C@H]1CCc2cc3c(=O)oc(C)cc3nc2C1 | inactive

tested on: not listed separately; assay: as §1; assay type: functional, cell-based; conditions: 72 h

SMILES | pEC50
C=C(Cn1cnc(N)c2ncnc1-2)[C@H]1CCC2=Cc3c(cc(C)oc3=O)O[C@H]2C1 | 5.71
Cc1cc2c(c(=O)o1)C=C1CC[C@H]([C@@H](C)Cn3cnc(N)c4ncnc3-4)C[C@@H]1O2 | 6.51
C=C(C)[C@@H]1CCc2cnc3cc(C)oc(=O)c3c2C1 | 5.60
Cc1cc2c(c(=O)o1)C=C1CC[C@H]([C@@H](C)Cn3cc(C#N)c(N)n3)C[C@@H]1O2 | 5.08
Cc1cc2c(c(=O)o1)C=C1CC[C@H]([C@@H](C)CSc3ncccn3)C[C@@H]1O2 | 5.86
Cc1cc2c(c(=O)o1)C=C1CC[C@H]([C@@H](C)COc3nccc(N)n3)C[C@@H]1O2 | 5.53
Cc1cc2c(c(=O)o1)C=C1CC[C@H]([C@@H](C)Cn3cnc4c(N)ncnc43)C[C@@H]1O2 | 5.52
Cc1cc2c(c(=O)o1)C=C1CC[C@H]([C@@H](C)Cn3cnc4cnc(N)nc43)C[C@@H]1O2 | 6.07
Cc1cc2c(c(=O)o1)C=C1CC[C@H]([C@@H](C)Cn3cc(C)c(=O)[nH]c3=O)C[C@@H]1O2 | 5.16
Cc1cc2c(c(=O)o1)C=C1CC[C@H]([C@@H](C)Cn3cnc4c(Cl)ncnc43)C[C@@H]1O2 | 6.03
COc1ccc(Cn2c(C)cc3c(c2=O)C=C2CC[C@H]([C@@H](C)Cn4cnc(N)c5ncnc4-5)C[C@@H]2O3)cc1 | 6.46
C=C(C)[C@H]1CCC2=Cc3c(cc(C)n(Cc4ccc(OC)cc4)c3=O)O[C@H]2C1 | 5.90

Source: ChEMBL document CHEMBL1143332, “Syntheses of tricyclic pyrones and pyridinones and protection of Abeta-peptide induced MC65 neuronal cell death” (Bioorg Med Chem Lett, 2009)
